# ± gives the expanded uncertainty stated by the source.
# Assay: refractive index (Na D-line) (dimensionless); xn = mol fraction of the nth substance listed
# Details: 101 kPa, Liquid
compound,measurement,setting,value
CCn1cc[n+](C)c1.O=S(=O)([O-])C(F)(F)F [1-ethyl-3-methylimidazolium trifluoromethanesulfonate] + CC(C)=O,refractive index,"288.15 K, x1 = 0.04957",1.37495 ± 0.0013
same,refractive index,"288.15 K, x1 = 0.1005",1.38499 ± 0.0013
same,refractive index,"288.15 K, x1 = 0.1503",1.39293 ± 0.0013
same,refractive index,"288.15 K, x1 = 0.2007",1.39936 ± 0.0013
same,refractive index,"288.15 K, x1 = 0.2995",1.40865 ± 0.0013
same,refractive index,"288.15 K, x1 = 0.3973",1.41585 ± 0.0013
same,refractive index,"288.15 K, x1 = 0.5018",1.42117 ± 0.0013
same,refractive index,"288.15 K, x1 = 0.5996",1.42541 ± 0.0013
same,refractive index,"288.15 K, x1 = 0.6973",1.42854 ± 0.0013
same,refractive index,"288.15 K, x1 = 0.7733",1.43087 ± 0.0013
same,refractive index,"288.15 K, x1 = 0.8452",1.43253 ± 0.0013
same,refractive index,"288.15 K, x1 = 0.8988",1.43368 ± 0.0013
same,refractive index,"288.15 K, x1 = 0.9559",1.43487 ± 0.0013
same,refractive index,"298.15 K, x1 = 0.04957",1.36994 ± 0.0013
same,refractive index,"298.15 K, x1 = 0.1005",1.38033 ± 0.0013
same,refractive index,"298.15 K, x1 = 0.1503",1.38854 ± 0.0013
same,refractive index,"298.15 K, x1 = 0.2007",1.39527 ± 0.0013
same,refractive index,"298.15 K, x1 = 0.2995",1.40492 ± 0.0013
same,refractive index,"298.15 K, x1 = 0.3973",1.41237 ± 0.0013
same,refractive index,"298.15 K, x1 = 0.5018",1.41787 ± 0.0013
same,refractive index,"298.15 K, x1 = 0.5996",1.42225 ± 0.0013
same,refractive index,"298.15 K, x1 = 0.6973",1.42549 ± 0.0013
same,refractive index,"298.15 K, x1 = 0.7733",1.42786 ± 0.0013
same,refractive index,"298.15 K, x1 = 0.8452",1.42963 ± 0.0013
same,refractive index,"298.15 K, x1 = 0.8988",1.43085 ± 0.0013
same,refractive index,"298.15 K, x1 = 0.9559",1.43207 ± 0.0013
same,refractive index,"308.15 K, x1 = 0.04957",1.36575 ± 0.0013
same,refractive index,"308.15 K, x1 = 0.1005",1.37615 ± 0.0013
same,refractive index,"308.15 K, x1 = 0.1503",1.38475 ± 0.0013
same,refractive index,"308.15 K, x1 = 0.2007",1.39155 ± 0.0013
same,refractive index,"308.15 K, x1 = 0.2995",1.40133 ± 0.0013
same,refractive index,"308.15 K, x1 = 0.3973",1.409 ± 0.0013
same,refractive index,"308.15 K, x1 = 0.5018",1.41464 ± 0.0013
same,refractive index,"308.15 K, x1 = 0.5996",1.41908 ± 0.0013
same,refractive index,"308.15 K, x1 = 0.6973",1.4225 ± 0.0013
same,refractive index,"308.15 K, x1 = 0.7733",1.4249 ± 0.0013
same,refractive index,"308.15 K, x1 = 0.8452",1.42676 ± 0.0013
same,refractive index,"308.15 K, x1 = 0.8988",1.42803 ± 0.0013
same,refractive index,"308.15 K, x1 = 0.9559",1.42925 ± 0.0013
same,refractive index,"318.15 K, x1 = 0.04957",1.36218 ± 0.0013
same,refractive index,"318.15 K, x1 = 0.1005",1.37308 ± 0.0013
same,refractive index,"318.15 K, x1 = 0.1503",1.38186 ± 0.0013
same,refractive index,"318.15 K, x1 = 0.2007",1.38862 ± 0.0013
same,refractive index,"318.15 K, x1 = 0.2995",1.39777 ± 0.0013
same,refractive index,"318.15 K, x1 = 0.3973",1.40574 ± 0.0013
same,refractive index,"318.15 K, x1 = 0.5018",1.41148 ± 0.0013
same,refractive index,"318.15 K, x1 = 0.5996",1.41604 ± 0.0013
same,refractive index,"318.15 K, x1 = 0.6973",1.41953 ± 0.0013
same,refractive index,"318.15 K, x1 = 0.7733",1.42199 ± 0.0013
same,refractive index,"318.15 K, x1 = 0.8452",1.42392 ± 0.0013
same,refractive index,"318.15 K, x1 = 0.8988",1.42518 ± 0.0013
same,refractive index,"318.15 K, x1 = 0.9559",1.4265 ± 0.0013
